These results are taken from patent US20150005311A1, “IP receptor agonist heterocyclic compounds” (NOVARTIS AG, priority 2012, published 2015).

Each structure is given as a SMILES string. pEC50: −log10 of the molar value.

The term pEC50 denotes the negative decadic logarithm of the EC50, by convention in mol/L. High values mean a small EC50, low ones a large EC50.

In the test the target is T1, IP receptor (Homo sapiens, UniProt P43119).
T1 construct: expressed in transfected cells; host or cells: CHO cells stably expressing the IP receptor (CHO-IP)
T1 sequence (P43119 whole entry): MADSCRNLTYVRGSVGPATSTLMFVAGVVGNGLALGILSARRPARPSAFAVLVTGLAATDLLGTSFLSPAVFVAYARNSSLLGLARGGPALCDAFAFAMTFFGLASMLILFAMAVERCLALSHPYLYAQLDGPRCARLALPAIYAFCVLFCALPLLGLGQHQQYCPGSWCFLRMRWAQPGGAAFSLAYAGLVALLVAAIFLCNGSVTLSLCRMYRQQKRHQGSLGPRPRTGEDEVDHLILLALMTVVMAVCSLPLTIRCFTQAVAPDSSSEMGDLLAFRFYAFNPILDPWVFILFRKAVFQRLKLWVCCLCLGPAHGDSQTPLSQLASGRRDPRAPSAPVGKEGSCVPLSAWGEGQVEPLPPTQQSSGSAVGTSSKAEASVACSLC
Briefly: cAMP accumulation in CHO cells stably expressing the IP receptor (CHO-IP), PerkinElmer AlphaScreen assay. Format: cell-based. Particulars: 1 hour at room temperature, 4-parameter logistic fit. The protocol:
Activity of compounds at the IP receptor (IP receptor) is assessed by measuring cAMP accumulation in CHO cells stably expressing the IP receptor (CHO-IP) using the PerkinElmer AlphaScreen assay. This technology measures the endogenous production of cAMP, in a non-radioactive luminescence proximity homogenous assay. A biological reaction occurs between streptavidin coated donor beads, biotinylated cAMP and anti-cAMP acceptor beads, bringing the donor and acceptor beads close enough together so that upon excitation a fluorescence signal is produced. On production of endogenous cAMP, competition between the biotinylated cAMP and cellular-derived cAMP causes a reduction in the fluorescent signal. The reduction in signal is proportional to the amount of cAMP being produced, thus it is possible to quantify the amount of cAMP being produced on stimulation with agonist.
Test and reference compounds are prepared at 100×[final] in 100% DMSO, and diluted 1:3 using a Biomek Fx (Beckman Coulter). This is followed by an intermediate dilution to give 5×[final] in assay buffer (HBSS containing 5 mM HEPES, 0.1% (w/v) BSA). 5 μL of 5×[final] test compounds, reference compounds and buffer/DMSO control are then transferred to a 384-well white OptiPlate, containing 20 μL CHO-IP cell suspension (15,000 cells/well, prepared from frozen), and plate is incubated at room temperature for 1 hour. A cAMP standard curve is constructed for each experiment (concentration range of 10000 nM to 0.001 nM, in assay buffer) and 25 μL of each concentration added to the last two columns of the assay plate. The incubation is terminated by the addition of lysis buffer (dH2O; 0.3% (v v^−1) Tween-20) containing 20 units mL^−1 streptavidin coated donor beads and biotinylated cAMP (pre-incubated for 30 minutes) and 20 units mL^−1 anti-cAMP acceptor beads, which are added to the lysis buffer just before addition to the assay plate. The assay plate is then incubated at room temperature in the dark, for 60 minutes with gentle shaking, and read on the Envision plate reader (Perkin Elmer).
The raw data of the reference compounds, test compounds and controls are converted into cAMP concentrations, using the cAMP standard curve, in GraphPadPrism (GraphPad Software Inc). EC50 as well as maximal values of the agonist curves are determined using a 4-parameter logistic equation. The % maximum response values of all test compounds are determined using the top of the treprostinil concentration-response curve.
`Cc1ccc(-c2nc3c(nc2-c2ccc(C)cc2)N(CCCCCCc2nnn[nH]2)CC(O)C3)cc1` (single isomer, unassigned) [Example 3a, (R)- or (S)-5-(6-(1H-tetrazol-5-yl)hexyl)-2,3-di-p-tolyl-5,6,7,8-tetrahydropyrido[2,3-b]pyrazin-7-ol]] showed a negative logarithm of the EC50 (pEC50) of 8.69.

`Cc1ccc(-c2nc3c(nc2-c2ccc(C)cc2)N(CCCCCc2nnn[nH]2)CCC3)cc1` [Example 2, 5-(5-(1H-tetrazol-5-yl)pentyl)-2,3-di-p-tolyl-5,6,7,8-tetrahydropyrido[2,3-b]pyrazine] gave a pEC50 of 10.15. The compound `Cc1ccc(-c2nc3c(nc2-c2ccc(C)cc2)N(CCCCCc2nnn[nH]2)CC(O)C3)cc1` (single isomer, unassigned) [Example 4b, (R)- or (S)-5-(5-(1H-Tetrazol-5-yl)pentyl)-2,3-di-p-tolyl-5,6,7,8-tetrahydropyrido[2,3-b]pyrazin-7-ol]] showed a pEC50 of 9.07.

Compound `Cc1ccc(-c2nc3c(nc2-c2ccc(C)cc2)N(CCCCCc2nnn[nH]2)CC(O)C3)cc1` (single isomer, unassigned) [Example 4a, (R)- or (S)-5-(5-(1H-Tetrazol-5-yl)pentyl)-2,3-di-p-tolyl-5,6,7,8-tetrahydropyrido[2,3-b]pyrazin-7-ol]] showed a pEC50 of 9.21. Compound `Cc1ccc(-c2nc3c(nc2-c2ccc(C)cc2)N(CCCCCCc2nnn[nH]2)CC(O)C3)cc1` (single isomer, unassigned) [Example 3b, (R)- or (S)-5-(6-(1H-tetrazol-5-yl)hexyl)-2,3-di-p-tolyl-5,6,7,8-tetrahydropyrido[2,3-b]pyrazin-7-ol]] showed a pEC50 of 8.77.

The compound `Cc1ccc(-c2nc3c(nc2-c2ccc(C)cc2)N(CCCCCCc2nnn[nH]2)CC(O)C3)cc1` (racemic) [Example 3, rac-5-(6-(1H-Tetrazol-5-yl)hexyl)-2,3-di-p-tolyl-5,6,7,8-tetrahydropyrido[2,3-b]pyrazin-7-ol] had a pEC50 of 10.40. Compound `Cc1ccc(-c2nc3c(nc2-c2ccc(C)cc2)N(CCCCCCc2nnn[nH]2)CCC3)cc1` [Example 1, 5-(6-(1H-Tetrazol-5-yl)hexyl)-2,3-di-p-tolyl-5,6,7,8-tetrahydropyrido[2,3-b]pyrazine] showed a negative logarithm of the EC50 (pEC50) of 9.96.

In turn, `Cc1ccc(-c2nc3c(nc2-c2ccc(C)cc2)N(CCCCCc2nnn[nH]2)CC(O)C3)cc1` (racemic) [Example 4, rac-5-(5-(1H-Tetrazol-5-yl)pentyl)-2,3-di-p-tolyl-5,6,7,8-tetrahydropyrido[3,2-b]pyrazin-7-ol] showed a pEC50 of 8.25.
